Test results from the NIST ThermoML archive (doi:10.1021/je3001969).

Assay: xn = mol fraction of the nth substance listed
Details: Liquid, Pycnometric method

[C-]#[O+] [carbon monoxide] + CCC(=O)O
Details | mass density [kg/m3]
293.2 K, x1 = 0.0156 | 988.2
293.2 K, x1 = 0.0211 | 983.1
293.2 K, x1 = 0.0237 | 978.3
293.2 K, x1 = 0.0298 | 970.5
293.2 K, x1 = 0.0353 | 962.3
293.2 K, x1 = 0.0418 | 950.4
293.2 K, x1 = 0.0487 | 937.2
293.2 K, x1 = 0.0596 | 919.7
313.2 K, x1 = 0.0121 | 985.4
313.2 K, x1 = 0.0146 | 978.3
313.2 K, x1 = 0.0202 | 972.6
313.2 K, x1 = 0.0269 | 965.1
313.2 K, x1 = 0.0311 | 957.4
313.2 K, x1 = 0.0387 | 945.2
313.2 K, x1 = 0.0465 | 931.2
313.2 K, x1 = 0.0557 | 913.3
333.2 K, x1 = 0.0105 | 977.4
333.2 K, x1 = 0.0125 | 971.2
333.2 K, x1 = 0.0179 | 964.9
333.2 K, x1 = 0.024 | 958
333.2 K, x1 = 0.028 | 949.8
333.2 K, x1 = 0.0341 | 938.5
333.2 K, x1 = 0.0418 | 925.3
333.2 K, x1 = 0.0508 | 907.7
353.2 K, x1 = 0.0082 | 968.4
353.2 K, x1 = 0.0108 | 963
353.2 K, x1 = 0.0165 | 956.7
353.2 K, x1 = 0.0225 | 952.3
353.2 K, x1 = 0.0267 | 944.7
353.2 K, x1 = 0.0331 | 933.4
353.2 K, x1 = 0.0407 | 919.6
353.2 K, x1 = 0.0478 | 902.3

[C-]#[O+] [carbon monoxide] + COC=O
Details | mass density [kg/m3]
293.2 K, x1 = 0.0184 | 976.3
293.2 K, x1 = 0.0214 | 976.1
293.2 K, x1 = 0.0274 | 974.9
293.2 K, x1 = 0.0342 | 971.3
293.2 K, x1 = 0.0445 | 964.7
293.2 K, x1 = 0.054 | 954.7
293.2 K, x1 = 0.0735 | 932.5
293.2 K, x1 = 0.0914 | 911.2
313.2 K, x1 = 0.012 | 972.1
313.2 K, x1 = 0.0196 | 971.5
313.2 K, x1 = 0.0259 | 969.3
313.2 K, x1 = 0.0358 | 962.4
313.2 K, x1 = 0.0473 | 950.8
313.2 K, x1 = 0.0598 | 937.3
313.2 K, x1 = 0.0691 | 924.7
313.2 K, x1 = 0.0812 | 904.3
333.2 K, x1 = 0.0101 | 969.2
333.2 K, x1 = 0.0136 | 968.7
333.2 K, x1 = 0.0204 | 967.6
333.2 K, x1 = 0.0286 | 960.7
333.2 K, x1 = 0.0412 | 947.8
333.2 K, x1 = 0.0496 | 937.5
333.2 K, x1 = 0.0613 | 923
333.2 K, x1 = 0.0744 | 901.3
353.2 K, x1 = 0.0063 | 964.6
353.2 K, x1 = 0.01 | 964.2
353.2 K, x1 = 0.0159 | 963.2
353.2 K, x1 = 0.0224 | 956.8
353.2 K, x1 = 0.0297 | 948.7
353.2 K, x1 = 0.0401 | 935.3
353.2 K, x1 = 0.0549 | 916.8
353.2 K, x1 = 0.0696 | 895.8
